Measurements: ChEMBL document CHEMBL1138245, “Discovery of N1-(6-chloroimidazo[2,1-b][1,3]thiazole-5-sulfonyl)tryptamine as a potent, selective, and orally active 5-HT(6) receptor agonist” (J Med Chem, 2007)

Tests used:
[1] = molecular target: T1, 5-hydroxytryptamine receptor 6 (Homo sapiens, UniProt P50406); assay: Displacement of [3H]LSD from human 5HT6 receptor expressed in HeLa cells; format: cell-based
[2] = molecular target: T1, 5-hydroxytryptamine receptor 6; assay: Agonist activity at human 5HT6 receptor expressed in HeLa cells assessed as cAMP production; format: functional, cell-based
[3] = molecular target: T1, 5-hydroxytryptamine receptor 6; assay: Antagonist activity at human 5HT6 receptor expressed in HeLa cells assessed as cAMP production; format: functional, cell-based

T1 sequence (P50406 whole entry): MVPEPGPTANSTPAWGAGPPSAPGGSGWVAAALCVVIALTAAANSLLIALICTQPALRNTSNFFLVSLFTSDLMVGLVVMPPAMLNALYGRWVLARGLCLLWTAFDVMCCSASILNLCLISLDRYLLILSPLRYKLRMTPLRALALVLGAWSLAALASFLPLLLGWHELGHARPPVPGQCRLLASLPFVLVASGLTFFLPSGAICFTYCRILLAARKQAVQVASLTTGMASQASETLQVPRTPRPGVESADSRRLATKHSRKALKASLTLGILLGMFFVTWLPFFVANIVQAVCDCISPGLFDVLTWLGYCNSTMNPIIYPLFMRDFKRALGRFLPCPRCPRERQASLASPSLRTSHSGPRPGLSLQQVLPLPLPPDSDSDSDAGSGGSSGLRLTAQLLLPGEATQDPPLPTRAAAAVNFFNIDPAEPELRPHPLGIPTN

| SMILES | Ki [1] [nM] | EC50 [2] [nM] | Emax [2] [%] | IC50 [3] [nM] | Imax [3] [%] |
| --- | --- | --- | --- | --- | --- |
| NCCc1cn(S(=O)(=O)c2ccc(Br)s2)c2ccccc12 | 7 | 54 | 72 |  |  |
| NCCc1cn(S(=O)(=O)c2ccc(F)cc2)c2ccccc12 | 21 |  |  |  |  |
| CN1C=C(S(=O)(=O)n2cc(CCN)c3ccccc32)SC1N (configuration not stated) | 10 |  |  | 9.6 | 83 |
